Experimental data taken from the kinase profiling compilation of Christmann-Franck et al. (2016).

Key:
Assay in all cases: radiometric filter-binding kinase assay
IKBKB (human) = IKBKB (human) (UniProt O14920)
CHEK1 (human) = CHEK1 (human) (UniProt O14757)
EPHB2 (human) = EPHB2 (human) (UniProt P29323)
CaMK1 (human) = CaMK1 (human) (UniProt Q14012)
GCK (human) = GCK (human) (UniProt Q12851)
LCK (mouse) = details: accession and sequence are those of the human protein
CDK2 CCNA2 (human) = CDK2 CCNA2 (human) (UniProt P20248+P24941)
MINK1 (human) = MINK1 (human) (UniProt Q8N4C8)
DYRK3 (human) = DYRK3 (human) (UniProt O43781)
MAPK10 (human) = MAPK10 (human) (UniProt P53779)
TBK1 (human) = TBK1 (human) (UniProt Q9UHD2)
[1] = tested on: PAK2 (human), Q13177 [T402E]
MAP2K1 (human) = MAP2K1 (human) (UniProt Q02750); details: compound 1.0 µM
MST4 (human) = MST4 (human) (UniProt Q9P289)
TTK (human) = TTK (human) (UniProt P33981)
MYLK (human) = MYLK (human) (UniProt Q15746)
NUAK1 (human) = NUAK1 (human) (UniProt O60285)
PKN2 (human) = PKN2 (human) (UniProt Q16513)
MAPK8 (human) = MAPK8 (human) (UniProt P45983)
EPHA2 (human) = EPHA2 (human) (UniProt P29317)
PAK6 (human) = PAK6 (human) (UniProt Q9NQU5)
CSK (human) = CSK (human) (UniProt P41240)
SRC (human) = SRC (human) (UniProt P12931)
EPHA4 (human) = EPHA4 (human) (UniProt P54764)
RPS6KA3 KD1 KD2 (human) = RPS6KA3 KD1 KD2 (human) (UniProt P51812)
AURKB (human) = AURKB (human) (UniProt Q96GD4)
CHEK2 (human) = CHEK2 (human) (UniProt O96017)
PAK4 (human) = PAK4 (human) (UniProt O96013)
MAP3K11 (human) = MAP3K11 (human) (UniProt Q16584)
ROCK2 (rat) = details: accession and sequence are those of the human protein
EPHB3 (human) = EPHB3 (human) (UniProt P54753)
MAP3K7 TAB1 (human) = MAP3K7 TAB1 (human) (UniProt Q15750+O43318)
MARK2 (human) = MARK2 (human) (UniProt Q7KZI7)
[2] = tested on: AKT1 (human), P31749 [S473D]

Sequence of PAK6 (human) (Q9NQU5 whole entry, looked up): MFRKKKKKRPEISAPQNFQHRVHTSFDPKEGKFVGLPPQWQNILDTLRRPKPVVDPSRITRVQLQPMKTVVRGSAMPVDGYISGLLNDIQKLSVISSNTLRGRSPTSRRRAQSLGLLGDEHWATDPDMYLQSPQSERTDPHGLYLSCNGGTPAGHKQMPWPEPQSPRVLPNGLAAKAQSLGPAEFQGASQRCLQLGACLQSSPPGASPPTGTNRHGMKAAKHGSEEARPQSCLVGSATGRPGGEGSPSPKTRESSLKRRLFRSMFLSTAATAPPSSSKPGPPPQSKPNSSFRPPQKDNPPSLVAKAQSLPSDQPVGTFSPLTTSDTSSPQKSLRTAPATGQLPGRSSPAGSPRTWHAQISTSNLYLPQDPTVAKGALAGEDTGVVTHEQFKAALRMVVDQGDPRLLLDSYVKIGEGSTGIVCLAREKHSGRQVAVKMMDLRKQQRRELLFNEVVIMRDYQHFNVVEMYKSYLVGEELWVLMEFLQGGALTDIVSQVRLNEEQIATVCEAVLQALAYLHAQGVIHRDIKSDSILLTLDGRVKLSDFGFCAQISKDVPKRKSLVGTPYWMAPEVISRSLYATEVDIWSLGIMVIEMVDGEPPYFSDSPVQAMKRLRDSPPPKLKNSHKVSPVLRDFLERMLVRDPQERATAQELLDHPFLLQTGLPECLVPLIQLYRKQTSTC
Sequence of MAPK8 (human) (P45983 whole entry, looked up): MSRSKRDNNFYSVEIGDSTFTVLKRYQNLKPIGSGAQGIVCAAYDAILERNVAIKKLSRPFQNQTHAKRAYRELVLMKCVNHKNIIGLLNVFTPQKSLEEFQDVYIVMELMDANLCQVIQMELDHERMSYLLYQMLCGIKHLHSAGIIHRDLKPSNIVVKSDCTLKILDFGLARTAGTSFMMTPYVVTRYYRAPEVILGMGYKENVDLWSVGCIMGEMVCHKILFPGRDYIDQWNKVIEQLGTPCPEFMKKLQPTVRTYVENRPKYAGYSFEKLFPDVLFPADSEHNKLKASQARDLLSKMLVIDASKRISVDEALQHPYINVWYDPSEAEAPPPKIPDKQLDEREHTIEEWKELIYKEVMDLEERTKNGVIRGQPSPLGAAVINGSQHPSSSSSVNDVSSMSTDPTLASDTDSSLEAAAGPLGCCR
Sequence of MAP3K11 (human) (Q16584 whole entry, looked up): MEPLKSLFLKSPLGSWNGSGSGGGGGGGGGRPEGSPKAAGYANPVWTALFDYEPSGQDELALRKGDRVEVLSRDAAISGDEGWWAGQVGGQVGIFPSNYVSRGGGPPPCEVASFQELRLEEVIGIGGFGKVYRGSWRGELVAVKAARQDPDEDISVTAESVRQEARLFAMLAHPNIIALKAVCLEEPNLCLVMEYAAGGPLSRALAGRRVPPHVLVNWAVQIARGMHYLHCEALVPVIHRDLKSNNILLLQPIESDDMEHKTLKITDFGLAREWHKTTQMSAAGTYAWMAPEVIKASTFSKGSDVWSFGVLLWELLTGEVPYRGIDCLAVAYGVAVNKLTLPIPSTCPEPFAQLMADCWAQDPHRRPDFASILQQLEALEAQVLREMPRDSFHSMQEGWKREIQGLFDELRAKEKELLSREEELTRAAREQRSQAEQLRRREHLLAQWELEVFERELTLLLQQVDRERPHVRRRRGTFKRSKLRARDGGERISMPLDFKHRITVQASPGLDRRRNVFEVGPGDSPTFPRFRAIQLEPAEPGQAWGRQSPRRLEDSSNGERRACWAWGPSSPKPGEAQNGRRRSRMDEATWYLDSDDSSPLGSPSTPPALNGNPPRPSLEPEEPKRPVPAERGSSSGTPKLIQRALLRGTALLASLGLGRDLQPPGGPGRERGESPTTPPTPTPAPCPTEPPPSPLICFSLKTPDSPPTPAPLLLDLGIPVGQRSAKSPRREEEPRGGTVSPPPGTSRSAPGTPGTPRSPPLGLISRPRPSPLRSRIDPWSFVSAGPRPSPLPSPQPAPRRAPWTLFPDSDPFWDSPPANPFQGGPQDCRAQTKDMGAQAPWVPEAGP
Sequence of EPHA4 (human) (P54764 whole entry, looked up): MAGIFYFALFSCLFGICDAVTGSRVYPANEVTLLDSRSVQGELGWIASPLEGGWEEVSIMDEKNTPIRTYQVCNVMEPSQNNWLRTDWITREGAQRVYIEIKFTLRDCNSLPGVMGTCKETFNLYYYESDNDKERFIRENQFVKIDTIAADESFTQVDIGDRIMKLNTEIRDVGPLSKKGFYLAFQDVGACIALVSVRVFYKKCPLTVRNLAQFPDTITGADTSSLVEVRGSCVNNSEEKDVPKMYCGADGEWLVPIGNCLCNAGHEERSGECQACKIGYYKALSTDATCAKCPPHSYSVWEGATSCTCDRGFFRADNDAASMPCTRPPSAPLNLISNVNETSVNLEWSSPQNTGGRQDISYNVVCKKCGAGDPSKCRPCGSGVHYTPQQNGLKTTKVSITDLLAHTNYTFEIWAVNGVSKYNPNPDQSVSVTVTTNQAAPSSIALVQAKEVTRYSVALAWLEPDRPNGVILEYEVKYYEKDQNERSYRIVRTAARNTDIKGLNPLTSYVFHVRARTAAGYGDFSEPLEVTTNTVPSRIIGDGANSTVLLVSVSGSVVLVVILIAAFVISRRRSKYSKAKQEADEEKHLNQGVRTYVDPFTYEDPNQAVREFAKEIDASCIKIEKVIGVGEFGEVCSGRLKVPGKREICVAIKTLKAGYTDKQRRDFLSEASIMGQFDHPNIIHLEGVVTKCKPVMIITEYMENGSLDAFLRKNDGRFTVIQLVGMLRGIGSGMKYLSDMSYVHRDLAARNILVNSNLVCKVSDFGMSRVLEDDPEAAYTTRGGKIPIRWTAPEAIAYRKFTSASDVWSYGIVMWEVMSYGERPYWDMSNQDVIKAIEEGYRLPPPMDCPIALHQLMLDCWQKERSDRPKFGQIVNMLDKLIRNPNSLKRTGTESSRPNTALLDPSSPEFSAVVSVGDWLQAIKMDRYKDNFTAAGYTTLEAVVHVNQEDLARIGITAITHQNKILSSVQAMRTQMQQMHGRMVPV
Sequence of NUAK1 (human) (O60285 whole entry, looked up): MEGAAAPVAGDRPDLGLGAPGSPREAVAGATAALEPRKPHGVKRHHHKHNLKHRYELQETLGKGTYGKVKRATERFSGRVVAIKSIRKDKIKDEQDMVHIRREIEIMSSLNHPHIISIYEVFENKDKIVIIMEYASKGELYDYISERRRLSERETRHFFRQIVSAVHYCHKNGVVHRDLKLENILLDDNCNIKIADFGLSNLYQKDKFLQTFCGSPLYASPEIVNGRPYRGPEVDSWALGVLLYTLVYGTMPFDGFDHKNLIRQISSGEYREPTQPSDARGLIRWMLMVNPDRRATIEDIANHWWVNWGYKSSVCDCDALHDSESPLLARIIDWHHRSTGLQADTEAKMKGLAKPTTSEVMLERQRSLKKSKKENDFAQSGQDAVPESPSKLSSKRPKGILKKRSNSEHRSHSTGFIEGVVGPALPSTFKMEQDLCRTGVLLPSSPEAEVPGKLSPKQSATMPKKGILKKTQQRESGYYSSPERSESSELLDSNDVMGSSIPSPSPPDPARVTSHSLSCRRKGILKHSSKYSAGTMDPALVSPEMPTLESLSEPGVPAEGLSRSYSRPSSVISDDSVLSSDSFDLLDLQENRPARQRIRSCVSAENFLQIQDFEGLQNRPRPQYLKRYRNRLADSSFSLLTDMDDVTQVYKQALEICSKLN
Sequence of MAP3K7 TAB1 (human) (O43318 whole entry, looked up): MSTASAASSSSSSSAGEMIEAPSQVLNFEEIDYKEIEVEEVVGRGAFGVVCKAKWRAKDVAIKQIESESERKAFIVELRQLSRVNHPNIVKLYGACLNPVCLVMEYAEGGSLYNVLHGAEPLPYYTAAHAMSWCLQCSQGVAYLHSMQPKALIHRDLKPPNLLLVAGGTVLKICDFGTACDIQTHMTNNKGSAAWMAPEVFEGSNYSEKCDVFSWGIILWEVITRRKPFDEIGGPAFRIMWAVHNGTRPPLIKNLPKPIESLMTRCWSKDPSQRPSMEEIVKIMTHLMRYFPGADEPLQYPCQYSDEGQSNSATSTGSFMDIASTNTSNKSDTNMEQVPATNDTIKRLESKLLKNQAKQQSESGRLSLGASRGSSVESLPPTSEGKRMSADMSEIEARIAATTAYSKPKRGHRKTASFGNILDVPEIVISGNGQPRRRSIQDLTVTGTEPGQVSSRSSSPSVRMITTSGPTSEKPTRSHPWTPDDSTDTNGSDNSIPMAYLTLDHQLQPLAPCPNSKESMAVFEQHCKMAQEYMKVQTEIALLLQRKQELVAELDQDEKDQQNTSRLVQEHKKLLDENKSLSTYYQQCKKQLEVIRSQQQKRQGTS
Sequence of MAP3K7 TAB1 (human) (Q15750 whole entry, looked up): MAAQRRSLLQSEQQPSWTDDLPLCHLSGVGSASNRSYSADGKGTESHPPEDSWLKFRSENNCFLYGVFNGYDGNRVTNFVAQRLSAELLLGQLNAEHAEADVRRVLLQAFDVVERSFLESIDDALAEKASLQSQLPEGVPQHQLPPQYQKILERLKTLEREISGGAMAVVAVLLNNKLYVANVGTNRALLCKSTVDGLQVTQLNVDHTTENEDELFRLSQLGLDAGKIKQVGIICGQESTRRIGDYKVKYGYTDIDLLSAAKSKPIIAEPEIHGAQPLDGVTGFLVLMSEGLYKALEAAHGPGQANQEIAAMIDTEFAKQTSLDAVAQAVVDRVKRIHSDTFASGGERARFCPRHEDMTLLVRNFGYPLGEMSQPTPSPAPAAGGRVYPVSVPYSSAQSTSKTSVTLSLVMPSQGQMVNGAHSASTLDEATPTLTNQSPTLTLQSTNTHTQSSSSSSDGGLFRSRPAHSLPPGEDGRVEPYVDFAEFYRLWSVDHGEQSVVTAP

residual activity (IKBKB (human); compound 0.1 µM): 107% | residual activity (IKBKB (human); compound 1.0 µM): 100% | residual activity (CHEK1 (human); compound 0.1 µM): 107% | residual activity (CHEK1 (human); compound 1.0 µM): 105% | residual activity (EPHB2 (human); compound 0.1 µM): 113% | residual activity (EPHB2 (human); compound 1.0 µM): 95% | residual activity (CaMK1 (human); compound 0.1 µM): 103% | residual activity (CaMK1 (human); compound 1.0 µM): 107% | residual activity (GCK (human); compound 0.1 µM): 98% | residual activity (GCK (human); compound 1.0 µM): 68% | residual activity (LCK (mouse); compound 0.1 µM): 105% | residual activity (LCK (mouse); compound 1.0 µM): 62% | residual activity (CDK2 CCNA2 (human); compound 0.1 µM): 93% | residual activity (CDK2 CCNA2 (human); compound 1.0 µM): 102% | residual activity (MINK1 (human); compound 0.1 µM): 66% | residual activity (MINK1 (human); compound 1.0 µM): 13% | residual activity (DYRK3 (human); compound 0.1 µM): 102% | residual activity (DYRK3 (human); compound 1.0 µM): 93% | residual activity (MAPK10 (human); compound 0.1 µM): 119% | residual activity (MAPK10 (human); compound 1.0 µM): 99% | residual activity (TBK1 (human); compound 0.1 µM): 102% | residual activity (TBK1 (human); compound 1.0 µM): 106% | residual activity ([1]; compound 0.1 µM): 111% | residual activity ([1]; compound 1.0 µM): 101% | residual activity (MAP2K1 (human)): 98% | residual activity (MST4 (human); compound 0.1 µM): 95% | residual activity (MST4 (human); compound 1.0 µM): 99% | residual activity (TTK (human); compound 0.1 µM): 113% | residual activity (TTK (human); compound 1.0 µM): 98% | residual activity (MYLK (human); compound 0.1 µM): 104% | residual activity (MYLK (human); compound 1.0 µM): 89% | residual activity (NUAK1 (human); compound 0.1 µM): 96% | residual activity (NUAK1 (human); compound 1.0 µM): 84% | residual activity (PKN2 (human); compound 0.1 µM): 105% | residual activity (PKN2 (human); compound 1.0 µM): 91% | residual activity (MAPK8 (human); compound 0.1 µM): 111% | residual activity (MAPK8 (human); compound 1.0 µM): 101% | residual activity (EPHA2 (human); compound 0.1 µM): 105% | residual activity (EPHA2 (human); compound 1.0 µM): 92% | residual activity (PAK6 (human); compound 0.1 µM): 111% | residual activity (PAK6 (human); compound 1.0 µM): 113% | residual activity (CSK (human); compound 0.1 µM): 97% | residual activity (CSK (human); compound 1.0 µM): 93% | residual activity (SRC (human); compound 0.1 µM): 102% | residual activity (SRC (human); compound 1.0 µM): 75% | residual activity (EPHA4 (human); compound 0.1 µM): 108% | residual activity (EPHA4 (human); compound 1.0 µM): 98% | residual activity (RPS6KA3 KD1 KD2 (human); compound 0.1 µM): 126% | residual activity (RPS6KA3 KD1 KD2 (human); compound 1.0 µM): 109% | residual activity (AURKB (human); compound 0.1 µM): 98% | residual activity (AURKB (human); compound 1.0 µM): 102% | residual activity (CHEK2 (human); compound 0.1 µM): 115% | residual activity (CHEK2 (human); compound 1.0 µM): 110% | residual activity (PAK4 (human); compound 0.1 µM): 89% | residual activity (PAK4 (human); compound 1.0 µM): 93% | residual activity (MAP3K11 (human); compound 0.1 µM): 104% | residual activity (MAP3K11 (human); compound 1.0 µM): 107% | residual activity (ROCK2 (rat); compound 0.1 µM): 96% | residual activity (ROCK2 (rat); compound 1.0 µM): 104% | residual activity (EPHB3 (human); compound 0.1 µM): 112% | residual activity (EPHB3 (human); compound 1.0 µM): 104% | residual activity (MAP3K7 TAB1 (human); compound 0.1 µM): 99% | residual activity (MAP3K7 TAB1 (human); compound 1.0 µM): 81% | residual activity (MARK2 (human); compound 0.1 µM): 121% | residual activity (MARK2 (human); compound 1.0 µM): 110% | residual activity ([2]; compound 0.1 µM): 102% | residual activity ([2]; compound 1.0 µM): 106%
Structure (SMILES): Cc1cccc(-c2nn(C(=S)Nc3ccccc3)cc2-c2ccnc3ccccc23)n1
